Laboratory results: US12522594B2, “2-heteroaryl-3-oxo-2,3-dihydropyridazine-4-carboxamides for the treatment of cancer” (Deutsches Krebsforschungszentrum, priority 2017, dated 2026)

Tests used:
AHR [1] = target: T1, AHR (Homo sapiens, UniProt P35869); assay: In vitro assay 1: antagonism in human cell line (transactivation assay, U87 cells prestimulated with kynurenic acid, DRE firefly luciferase reporter); type: cell-based; parameters: host or cells: U87 glioblastoma cells, stably transfected with DRE firefly luciferase and renilla reporter constructs; settings: 150 uM kynurenic acid, 20 hours, read-out: Assay 1: AHR-luc Hum Antagonism IC50
T1 sequence (P35869 11-848): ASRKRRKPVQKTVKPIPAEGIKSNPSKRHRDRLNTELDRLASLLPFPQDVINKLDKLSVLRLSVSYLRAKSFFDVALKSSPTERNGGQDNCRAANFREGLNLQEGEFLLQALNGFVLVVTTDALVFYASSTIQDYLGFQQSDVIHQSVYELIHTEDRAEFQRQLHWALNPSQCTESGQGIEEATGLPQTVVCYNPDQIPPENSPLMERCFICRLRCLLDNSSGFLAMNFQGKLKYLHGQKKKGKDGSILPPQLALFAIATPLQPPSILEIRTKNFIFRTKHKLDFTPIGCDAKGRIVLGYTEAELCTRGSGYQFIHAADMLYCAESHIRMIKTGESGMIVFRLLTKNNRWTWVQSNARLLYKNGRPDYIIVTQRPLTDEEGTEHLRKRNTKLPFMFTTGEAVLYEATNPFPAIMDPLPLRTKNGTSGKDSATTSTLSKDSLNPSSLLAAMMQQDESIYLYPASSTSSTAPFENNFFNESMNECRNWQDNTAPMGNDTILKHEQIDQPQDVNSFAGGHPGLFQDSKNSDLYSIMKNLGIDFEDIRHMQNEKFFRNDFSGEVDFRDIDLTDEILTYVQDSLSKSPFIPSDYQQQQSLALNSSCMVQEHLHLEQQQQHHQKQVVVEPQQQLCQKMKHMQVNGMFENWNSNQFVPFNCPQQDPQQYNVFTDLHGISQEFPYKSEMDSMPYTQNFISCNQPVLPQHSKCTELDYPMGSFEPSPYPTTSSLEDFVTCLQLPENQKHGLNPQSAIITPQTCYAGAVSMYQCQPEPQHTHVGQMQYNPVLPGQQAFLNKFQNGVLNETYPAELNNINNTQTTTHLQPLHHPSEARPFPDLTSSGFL
Procedure, shortened: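 U87 glioblastoma cells with endogenous AHR, stably carrying a DRE-driven firefly luciferase reporter and a constitutive renilla reporter. Cells prestimulated with the AHR agonist kynurenic acid before compound addition; data normalized to positive and negative controls.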

AHR [2] = target: T1, AHR; assay: In vitro assay 2: agonism in human cell line (transactivation assay, U87 cells, DRE firefly luciferase reporter); type: cell-based; parameters: host or cells: U87 glioblastoma cells, stably transfected with DRE firefly luciferase and renilla reporter constructs; settings: no kynurenic acid, 20 hours, read-out: Assay 2: AHR-luc Hum Agonism IC50
Procedure, shortened: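 U87 glioblastoma cells with endogenous AHR, stably carrying DRE-driven firefly luciferase and constitutive renilla reporters. 300 uM kynurenic acid served as positive activation control; data normalized to positive and negative controls.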

IC50 (AHR [1]) [nM]	IC50 (AHR [2]) [nM]	Compound
8.87	> 20000	O=C(NC[C@H](O)C(F)(F)F)c1cc(-c2ccc(Cl)cc2)nn(-c2cnoc2)c1=O [Example 235, 6-(4-Chlorophenyl)-2-(1,2-oxazol-4-yl)-3-oxo-N-[(2S)-3,3,3-trifluoro-2-hydroxypropyl]-2,3-dihydropyridazine-4-carboxamide]
9.03	> 20000	O=C(N[C@H](CO)C(F)(F)F)c1cc(-c2ccc(Cl)cc2)nn(-c2cnn(C(F)F)c2)c1=O [Example 236, 6-(4-Chlorophenyl)-2-[1-(difluoromethyl)-1H-pyrazol-4-yl]-3-oxo-N-[(2R)-1,1,1-trifluoro-3-hydroxypropan-2-yl]-2,3-dihydropyridazine-4-carboxamide]
10	> 20000	Cn1cc(-n2nc(-c3ccc(C(F)(F)F)cc3)cc(C(=O)N[C@@H]3CCC[C@@H]3O)c2=O)cn1 [Example 239, N-[(1R,2S)-2-Hydroxycyclopentyl]-2-(1-methyl-1H-pyrazol-4-yl)-3-oxo-6-[4-(trifluoromethyl)phenyl]-2,3-dihydropyridazine-4-carboxamide]
11.1	> 20000	Cc1cc(-n2nc(-c3ccc(Cl)cc3)cc(C(=O)N[C@@H](C)CO)c2=O)cs1 [Example 242, 6-(4-Chlorophenyl)-N-[(2S)-1-hydroxypropan-2-yl]-2-(5-methyl-3-thienyl)-3-oxo-2,3-dihydropyridazine-4-carboxamide]
11.8	> 20000	C[C@@H](CO)NC(=O)c1cc(-c2ccc(Cl)cc2)nn(-c2csc(Cl)c2)c1=O [Example 243, 6-(4-Chlorophenyl)-2-(5-chloro-3-thienyl)-N-[(2S)-1-hydroxypropan-2-yl]-3-oxo-2,3-dihydropyridazine-4-carboxamide]
11.9	> 20000	C[C@@H](CO)NC(=O)c1cc(-c2ccc(C(F)(F)F)cc2)nn(-c2cn[nH]c2)c1=O [Example 244, N-[(2S)-1-Hydroxypropan-2-yl]-3-oxo-2-(1H-pyrazol-4-yl)-6-[4-(trifluoromethyl)phenyl]-2,3-dihydropyridazine-4-carboxamide]
12.8	> 20000	Cn1cc(-n2nc(-c3ccc(C(F)(F)F)cc3)cc(C(=O)NC[C@H](O)CF)c2=O)cn1 [Example 245, N-[(2S)-3-Fluoro-2-hydroxypropyl]-2-(1-methyl-1H-pyrazol-4-yl)-3-oxo-6-[4-(trifluoromethyl)phenyl]-2,3-dihydropyridazine-4-carboxamide]
13.2	> 20000	Cc1cc(-n2nc(-c3ccc(Cl)cc3)cc(C(=O)NCC(C)(C)O)c2=O)cs1 [Example 246, 6-(4-Chlorophenyl)-N-(2-hydroxy-2-methylpropyl)-2-(5-methyl-3-thienyl)-3-oxo-2,3-dihydropyridazine-4-carboxamide]
17.9	> 20000	C[C@@H](CO)NC(=O)c1cc(-c2ccc(C(F)(F)F)nc2)nn(-c2cnsc2)c1=O [Example 251, N-[(2S)-1-Hydroxypropan-2-yl]-3-oxo-2-(1,2-thiazol-4-yl)-6-[6-(trifluoromethyl)pyridin-3-yl]-2,3-dihydropyridazine-4-carboxamide]
19.4	> 20000	C[C@@H](CO)NC(=O)c1cc(-c2ccc(Cl)cc2)nn(-c2cnoc2)c1=O [Example 253, 6-(4-Chlorophenyl)-N-[(2S)-1-hydroxypropan-2-yl]-2-(1,2-oxazol-4-yl)-3-oxo-2,3-dihydropyridazine-4-carboxamide]
22.9	> 20000	N#C[C@@H](CO)NC(=O)c1cc(-c2ccc(Cl)cc2)nn(-c2cccnc2)c1=O [Example 254, 6-(4-Chlorophenyl)-N-[(1S)-1-cyano-2-hydroxyethyl]-3-oxo-2-(pyridin-3-yl)-2,3-dihydropyridazine-4-carboxamide]
25.8	> 20000	O=C(NC[C@H](O)CF)c1cc(-c2ccc(C(F)(F)F)cc2)nn(-c2cccnc2)c1=O [Example 255, N-[(2S)-3-Fluoro-2-hydroxypropyl]-3-oxo-2-(pyridin-3-yl)-6-[4-(trifluoromethyl)phenyl]-2,3-dihydropyridazine-4-carboxamide]
26	> 20000	O=C(NC[C@H](O)C(F)(F)F)c1cc(-c2ccc(Cl)cc2)nn(-c2cnn(C(F)F)c2)c1=O [Example 256, 6-(4-Chlorophenyl)-2-[1-(difluoromethyl)-1H-pyrazol-4-yl]-3-oxo-N-[(2S)-3,3,3-trifluoro-2-hydroxypropyl]-2,3-dihydropyridazine-4-carboxamide]
26.3	> 20000	COC[C@@H](CO)NC(=O)c1cc(-c2ccc(C(F)(F)F)cc2)nn(-c2cccnc2)c1=O [Example 257, N-[(2R)-1-Hydroxy-3-methoxypropan-2-yl]-3-oxo-2-(pyridin-3-yl)-6-[4-(trifluoromethyl)phenyl]-2,3-dihydropyridazine-4-carboxamide]
28.1	> 20000	O=C(N[C@H](CO)C1CC1)c1cc(-c2ccc(Cl)cc2)nn(-c2cncc(F)c2)c1=O [Example 259, 6-(4-Chlorophenyl)-N-[(1S)-1-cyclopropyl-2-hydroxyethyl]-2-(5-fluoropyridin-3-yl)-3-oxo-2,3-dihydropyridazine-4-carboxamide]
33	> 20000	C[C@@H](CO)NC(=O)c1cc(-c2ccc(C(F)(F)F)cc2)nn(-c2cnn(C(F)F)c2)c1=O [Example 261, 2-[1-(Difluoromethyl)-1H-pyrazol-4-yl]-N-[(2S)-1-hydroxypropan-2-yl]-3-oxo-6-[4-(trifluoromethyl)phenyl]-2,3-dihydropyridazine-4-carboxamide]
41.2	> 20000	CC(C)(O)CNC(=O)c1cc(-c2ccc(C(F)(F)F)cc2)nn(-c2cnn(C(F)F)c2)c1=O [Example 262, 2-[1-(Difluoromethyl)-1H-pyrazol-4-yl]-N-(2-hydroxy-2-methylpropyl)-3-oxo-6-[4-(trifluoromethyl)phenyl]-2,3-dihydropyridazine-4-carboxamide]
41.9	> 20000	O=C(NCC1(O)CC1)c1cc(-c2ccc(Cl)cc2)nn(-c2cccnc2)c1=O [Example 263, 6-(4-Chlorophenyl)-N-[(1-hydroxycyclopropyl)methyl]-3-oxo-2-(pyridin-3-yl)-2,3-dihydropyridazine-4-carboxamide]
48.8	> 20000	C[C@@H](NC(=O)c1cc(-c2ccc(Cl)cc2)nn(-c2cncnc2)c1=O)C(C)(C)O [Example 265, 6-(4-Chlorophenyl)-N-[(2R)-3-hydroxy-3-methylbutan-2-yl]-3-oxo-2-(pyrimidin-5-yl)-2,3-dihydropyridazine-4-carboxamide]
56.8	> 20000	CC(C)(O)CNC(=O)c1cc(-c2ccc(C(F)(F)F)cc2)nn(-c2cn[nH]c2)c1=O [Example 266, N-(2-Hydroxy-2-methylpropyl)-3-oxo-2-(1H-pyrazol-4-yl)-6-[4-(trifluoromethyl)phenyl]-2,3-dihydropyridazine-4-carboxamide]
56.9	> 20000	COC(=O)[C@@H](CO)NC(=O)c1cc(-c2ccc(Cl)cc2)nn(-c2cnn(C)c2)c1=O [Example 267, Methyl N-{[6-(4-chlorophenyl)-2-(1-methyl-1H-pyrazol-4-yl)-3-oxo-2,3-dihydropyridazine-4-yl]carbonyl}-D-serinate]
61.7	> 20000	CC(C)(O)CNC(=O)c1cc(-c2ccc(Cl)cc2)nn(-c2cnoc2)c1=O [Example 269, 6-(4-Chlorophenyl)-N-(2-hydroxy-2-methylpropyl)-2-(1,2-oxazol-4-yl)-3-oxo-2,3-dihydropyridazine-4-carboxamide]
64.5	> 20000	Cn1cc(-n2nc(-c3ccc(Cl)cc3)cc(C(=O)NC[C@H](O)CF)c2=O)cn1 [Example 270, 6-(4-Chlorophenyl)-N-[(2S)-3-fluoro-2-hydroxypropyl]-2-(1-methyl-1H-pyrazol-4-yl)-3-oxo-2,3-dihydropyridazine-4-carboxamide]
72	> 20000	O=C(N[C@H](CO)C(F)(F)F)c1cc(-c2ccc(Cl)cc2)nn(-c2cncnc2)c1=O [Example 271, 6-(4-Chlorophenyl)-3-oxo-2-(pyrimidin-5-yl)-N-[(2R)-1,1,1-trifluoro-3-hydroxypropan-2-yl]-2,3-dihydropyridazine-4-carboxamide]
